Values quoted from earlier work as cited in patent publication US10517911B2, “Manufacturing methods, compositions, and medical applications of orally administered cannabis pharmaceuticals using representative/total/complete cannabis extractions (cannabis infused pills)” (priority 2016, dated 2019).

Key:
[1] = test system: methicillin-resistant Staphylococcus aureus (MRSA)
COX-2 = target: T1, COX-2 (Homo sapiens, UniProt P35354)
T1 sequence (P35354 18-604): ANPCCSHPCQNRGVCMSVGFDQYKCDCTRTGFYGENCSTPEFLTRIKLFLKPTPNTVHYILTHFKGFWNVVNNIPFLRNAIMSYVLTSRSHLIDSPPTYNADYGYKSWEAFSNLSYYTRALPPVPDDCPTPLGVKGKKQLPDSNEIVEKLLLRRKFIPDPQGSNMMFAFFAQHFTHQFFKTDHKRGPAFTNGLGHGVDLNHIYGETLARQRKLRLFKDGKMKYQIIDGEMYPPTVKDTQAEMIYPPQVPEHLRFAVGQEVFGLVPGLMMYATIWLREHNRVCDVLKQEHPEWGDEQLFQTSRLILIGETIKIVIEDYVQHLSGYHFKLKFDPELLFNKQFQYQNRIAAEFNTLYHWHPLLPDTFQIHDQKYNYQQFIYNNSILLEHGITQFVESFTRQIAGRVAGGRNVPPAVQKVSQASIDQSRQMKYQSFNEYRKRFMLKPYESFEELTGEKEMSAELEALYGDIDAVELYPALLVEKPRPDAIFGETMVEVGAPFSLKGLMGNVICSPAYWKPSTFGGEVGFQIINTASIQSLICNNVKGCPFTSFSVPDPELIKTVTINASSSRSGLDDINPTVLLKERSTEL

COX-1 = COX-1 (Homo sapiens, UniProt P23219)
COX-1, sequence (P23219 24-599): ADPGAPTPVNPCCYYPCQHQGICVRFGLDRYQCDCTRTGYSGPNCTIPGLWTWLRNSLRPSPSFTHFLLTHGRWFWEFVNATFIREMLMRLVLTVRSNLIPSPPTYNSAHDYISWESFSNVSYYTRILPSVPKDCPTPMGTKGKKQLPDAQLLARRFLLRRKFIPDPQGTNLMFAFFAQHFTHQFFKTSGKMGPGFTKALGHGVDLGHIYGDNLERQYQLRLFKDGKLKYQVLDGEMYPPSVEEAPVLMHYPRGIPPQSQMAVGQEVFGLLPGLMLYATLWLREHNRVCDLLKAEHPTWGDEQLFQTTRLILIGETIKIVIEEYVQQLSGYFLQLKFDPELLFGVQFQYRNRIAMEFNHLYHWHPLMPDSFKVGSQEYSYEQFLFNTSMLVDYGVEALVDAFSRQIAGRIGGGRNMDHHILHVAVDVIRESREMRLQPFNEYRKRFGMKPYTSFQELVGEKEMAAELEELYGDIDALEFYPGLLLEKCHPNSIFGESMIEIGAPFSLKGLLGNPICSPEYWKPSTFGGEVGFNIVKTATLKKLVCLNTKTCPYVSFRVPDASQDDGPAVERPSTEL

Row | SMILES | activity against methicillin-resistant Staphylococcus aureus (MRSA) [1] | anti-inflammatory effectiveness relative to aspirin (times as effective as aspirin) | anti-inflammatory effectiveness relative to hydrocortisone (times as effective as hydrocortisone) | COX-2 inhibition (COX-2) | COX-1 inhibition (COX-1)
1 | CCCCCc1cc(O)c2c(c1)OC(C)(C)c1ccc(C)cc1-2 [Cannabinol] | powerful activity |  |  |  | 
2 | C=C(C)[C@@H]1CCC(C)=C[C@H]1c1c(O)cc(CCCCC)cc1O [Cannabidiol] | powerful activity |  |  |  | 
3 | CCCCCc1cc(O)c2c(c1)OC(C)(C)[C@@H]1CCC(C)=C[C@@H]21 [Tetrahydrocannabinol I, Tetrahydrocannabinol] |  | 20 times | 2 times | no COX-1 or COX-2 inhibition | no COX-1 or COX-2 inhibition
